Reference: patent publication US20050060764A1, “Mouse model for bone metabolism” (priority 2003, published 2005)
Strand notation (5' to 3'): a small letter for the sugar, then the base; units joined by * are phosphorothioate-linked, units joined directly phosphodiester-linked; [ ] holds rarer units or linkages, { } end groups; capitals alone tell only the bases. e = 2'-O-(2-methoxyethyl) (MOE); [5mC] = 5-methylcytosine; d = 2'-deoxy (DNA)

System: rat RANKL mRNA
Assay: Antisense inhibition of rat RANKL mRNA levels in UMR-106 cells, quantitative real-time PCR (Table 3)
Assay type: cell-based
Parameters: concentration or dose not given beside the values
Conditions: averages from three experiments
Procedure: Cells were seeded onto 24-well plates (Falcon-353047) at a density of […] for use in antisense oligonucleotide transfection.
Cells are treated and data are obtained in triplicate. […] Cells were harvested 16-24 hours after oligonucleotide treatment.
PCR reagents were obtained from Invitrogen Corporation, (Carlsbad, Calif.).
Probes and primers to rat RANKL were designed to hybridize to a rat RANKL sequence, using published sequence information (GenBank accession number NM_057149.1, incorporated herein as SEQ ID NO:18). For rat RANKL the PCR primers were: • forward primer: […] (SEQ ID NO:19) • reverse primer: […] (SEQ ID NO: 20) and the • PCR probe was: FAM-[…]-TAMRA (SEQ ID NO: 21) where FAM is the fluorescent reporter dye and TAMRA is the quencher dye. For rat GAPDH the PCR primers were: • forward primer: […](SEQ ID NO:22) • reverse primer: […](SEQ ID NO:23) and the • PCR probe was: 5′ JOE-[…]-TAMRA 3′ (SEQ ID NO: 24) where JOE is the fluorescent reporter dye and TAMRA is the quencher dye.
In accordance with the present invention, a second series of antisense compounds was designed to target different regions of the rat RANKL RNA, using published sequences (GenBank accession number NM_057149.1, incorporated herein as SEQ ID NO: 18, and GenBank accession number AF425669.1, incorporated herein as SEQ ID NO: 200). […] All cytidine residues are 5-methylcytidines. […] If present, “N.D.” indicates “no data”.

## 286627 (antisense eG*e[5mC]*eA*eA*eA*dT*dG*dT*dT*dG*dG*d[5mC]*dG*dT*dA*e[5mC]*eA*eG*eG*eT) [compound 286627]
  % INHIB (inhibition of rat RANKL mRNA levels): 53%

## 286628 (antisense eA*eG*eA*eT*eA*dG*dT*d[5mC]*d[5mC]*dG*d[5mC]*dA*dG*dG*dT*eA*e[5mC]*eG*e[5mC]*eT) [compound 286628]
  % INHIB (inhibition of rat RANKL mRNA levels): 24%

## 286629 (antisense eA*e[5mC]*e[5mC]*eA*eT*d[5mC]*dA*dG*d[5mC]*dT*dG*dA*dA*dG*dA*eT*eA*eG*eT*e[5mC]) [compound 286629]
  % INHIB (inhibition of rat RANKL mRNA levels): 63%

## 286630 (antisense eT*eT*eT*eT*eA*dA*d[5mC]*dG*dA*d[5mC]*dA*dT*dA*dT*dA*e[5mC]*e[5mC]*eA*eT*e[5mC]) [compound 286630]
  % INHIB (inhibition of rat RANKL mRNA levels): 44%

## 286631 (antisense eA*eT*eG*e[5mC]*eT*dG*dG*dT*dT*dT*dT*dA*dA*d[5mC]*dG*eA*e[5mC]*eA*eT*eA) [compound 286631]
  % INHIB (inhibition of rat RANKL mRNA levels): 35%

## 286632 (antisense e[5mC]*eT*eT*eG*eG*dG*dA*dT*dT*dT*dT*dG*dA*dT*dG*e[5mC]*eT*eG*eG*eT) [compound 286632]
  % INHIB (inhibition of rat RANKL mRNA levels): 51%

## 286633 (antisense e[5mC]*e[5mC]*eA*eG*eT*dT*d[5mC]*dT*dT*dA*dG*dT*dG*d[5mC]*dT*e[5mC]*e[5mC]*e[5mC]*e[5mC]*e[5mC]) [compound 286633]
  % INHIB (inhibition of rat RANKL mRNA levels): 4%

## 286634 (antisense eA*eA*eT*eT*e[5mC]*dA*dG*dA*dA*dT*dT*d[5mC]*d[5mC]*d[5mC]*dT*eG*eA*e[5mC]*e[5mC]*eA) [compound 286634]
  % INHIB (inhibition of rat RANKL mRNA levels): 21%

## 286635 (antisense eT*eA*eA*eA*eA*dG*dT*dG*dG*dA*dA*dT*dT*d[5mC]*dA*eG*eA*eA*eT*eT) [compound 286635]
  % INHIB (inhibition of rat RANKL mRNA levels): 11%

## 286636 (antisense eT*eG*eG*eA*eA*dT*dA*dA*dA*dA*dG*dT*dG*dG*dA*eA*eT*eT*e[5mC]*eA) [compound 286636]
  % INHIB (inhibition of rat RANKL mRNA levels): 21%

## 286637 (antisense e[5mC]*eG*e[5mC]*eA*eT*d[5mC]*dT*dT*dG*dA*dT*d[5mC]*d[5mC]*dG*dG*eA*eT*e[5mC]*e[5mC]*eA) [compound 286637]
  % INHIB (inhibition of rat RANKL mRNA levels): 27%

## 286638 (antisense eA*eG*eT*eA*e[5mC]*dG*dT*d[5mC]*dG*d[5mC]*dA*dT*d[5mC]*dT*dT*eG*eA*eT*e[5mC]*e[5mC]) [compound 286638]
  % INHIB (inhibition of rat RANKL mRNA levels): 26%

## 286639 (antisense e[5mC]*e[5mC]*e[5mC]*eA*eA*dA*dG*dT*dA*d[5mC]*dG*dT*d[5mC]*dG*d[5mC]*eA*eT*e[5mC]*eT*eT) [compound 286639]
  % INHIB (inhibition of rat RANKL mRNA levels): 48%

## 286640 (antisense eA*eA*eA*eG*e[5mC]*d[5mC]*d[5mC]*d[5mC]*dA*dA*dA*dG*dT*dA*d[5mC]*eG*eT*e[5mC]*eG*e[5mC]) [compound 286640]
  % INHIB (inhibition of rat RANKL mRNA levels): 56%

## 286641 (antisense e[5mC]*eT*eT*eT*eG*dA*dA*dA*dG*d[5mC]*d[5mC]*d[5mC]*d[5mC]*dA*dA*eA*eG*eT*eA*e[5mC]) [compound 286641]
  % INHIB (inhibition of rat RANKL mRNA levels): 49%

## 286642 (antisense eT*e[5mC]*eA*eG*eT*d[5mC]*dT*dA*dT*dG*dT*d[5mC]*dT*dT*dG*eA*eA*e[5mC]*eT*eT) [compound 286642]
  % INHIB (inhibition of rat RANKL mRNA levels): 41%

## 286643 (antisense eG*e[5mC]*eA*eT*eA*dT*d[5mC]*d[5mC]*dA*dT*dG*d[5mC]*dT*dA*dA*eG*eG*e[5mC]*eT*e[5mC]) [compound 286643]
  % INHIB (inhibition of rat RANKL mRNA levels): 69%

## 286644 (antisense eG*eT*e[5mC]*eT*eT*dA*d[5mC]*dA*d[5mC]*dA*dT*dG*dT*dA*dT*e[5mC]*eT*eA*e[5mC]*eA) [compound 286644]
  % INHIB (inhibition of rat RANKL mRNA levels): 57%

## 286645 (antisense e[5mC]*eT*eT*eA*eG*dT*dA*dG*dT*d[5mC]*dT*dT*dA*d[5mC]*dA*e[5mC]*eA*eT*eG*eT) [compound 286645]
  % INHIB (inhibition of rat RANKL mRNA levels): 51%

## 286646 (antisense eT*eT*eT*eT*eG*dT*dA*d[5mC]*dA*dA*d[5mC]*dG*dT*dG*dG*eG*e[5mC]*e[5mC]*eA*e[5mC]) [compound 286646]
  % INHIB (inhibition of rat RANKL mRNA levels): 53%

## 286647 (antisense eG*eA*e[5mC]*e[5mC]*eT*dG*dT*dA*d[5mC]*dA*dG*dG*dG*dT*d[5mC]*eG*eA*eG*eA*eG) [compound 286647]
  % INHIB (inhibition of rat RANKL mRNA levels): 53%

## 286648 (antisense e[5mC]*e[5mC]*eA*eT*eT*dG*dT*dG*dT*dG*dA*dT*d[5mC]*dA*d[5mC]*e[5mC]*eA*eT*eG*eA) [compound 286648]
  % INHIB (inhibition of rat RANKL mRNA levels): 72%

## 286649 (antisense eT*eA*eG*eA*e[5mC]*d[5mC]*d[5mC]*dA*dG*dA*dG*dA*d[5mC]*dT*dA*eT*eG*eT*eA*eT) [compound 286649]
  % INHIB (inhibition of rat RANKL mRNA levels): 25%

## 286650 (antisense eG*eT*eG*eG*e[5mC]*dA*d[5mC]*dA*dG*dG*d[5mC]*d[5mC]*d[5mC]*dA*dG*eG*eA*eG*eT*eT) [compound 286650]
  % INHIB (inhibition of rat RANKL mRNA levels): 53%

## 286651 (eA*eG*eG*eT*eT*d[5mC]*dT*d[5mC]*dA*dG*dT*dG*dG*d[5mC]*dA*e[5mC]*eA*eG*eG*e[5mC]; antisense) [compound 286651]
  % INHIB (inhibition of rat RANKL mRNA levels): 80%

## 286652 (e[5mC]*eT*e[5mC]*eT*eG*d[5mC]*dA*dA*dT*dG*dT*dA*dA*d[5mC]*dG*eG*eT*eA*e[5mC]*e[5mC]; antisense) [compound 286652]
  % INHIB (inhibition of rat RANKL mRNA levels): 53%

## 286653 (eA*eA*eA*e[5mC]*e[5mC]*dA*dT*d[5mC]*dA*dT*dT*dT*d[5mC]*dT*d[5mC]*eT*eG*e[5mC]*eA*eA; antisense) [compound 286653]
  % INHIB (inhibition of rat RANKL mRNA levels): 58%

## 286654 (eA*e[5mC]*eT*eT*eA*dT*dT*dT*dG*d[5mC]*dA*dG*dG*dT*dT*e[5mC]*e[5mC]*eA*eG*e[5mC]; antisense) [compound 286654]
  % INHIB (inhibition of rat RANKL mRNA levels): 55%

## 286655 (eG*eA*eA*eA*eA*d[5mC]*d[5mC]*dT*dT*dA*d[5mC]*dA*d[5mC]*d[5mC]*dT*eG*eA*eA*eA*eT; antisense) [compound 286655]
  % INHIB (inhibition of rat RANKL mRNA levels): 0%

## 286656 (eT*eT*eT*eT*eG*d[5mC]*dA*d[5mC]*dA*dG*dA*dA*dA*dA*d[5mC]*e[5mC]*eT*eT*eA*e[5mC]; antisense) [compound 286656]
  % INHIB (inhibition of rat RANKL mRNA levels): 12%

## 286657 (e[5mC]*e[5mC]*eA*eG*eT*dT*dA*dA*dA*dT*dA*d[5mC]*dA*dT*d[5mC]*eT*eT*eG*eA*e[5mC]; antisense) [compound 286657]
  % INHIB (inhibition of rat RANKL mRNA levels): 10%

## aaaccatcatttctctgcaa (eA*eA*eA*e[5mC]*e[5mC]*dA*dT*d[5mC]*dA*dT*dT*dT*d[5mC]*dT*d[5mC]*eT*eG*e[5mC]*eA*eA; antisense) [ISIS 286653, 2′-MOE gapmer targeted to rat RANKL]
  % INHIB (inhibition of rat RANKL mRNA levels): at least 40%

## aaagccccaaagtacgtcgc (eA*eA*eA*eG*e[5mC]*d[5mC]*d[5mC]*d[5mC]*dA*dA*dA*dG*dT*dA*d[5mC]*eG*eT*e[5mC]*eG*e[5mC]; antisense) [ISIS 286640, 2′-MOE gapmer targeted to rat RANKL]
  % INHIB (inhibition of rat RANKL mRNA levels): at least 40%
